From the NIST ThermoML archive (doi:10.1016/j.jct.2015.01.001)

Experiment: mn = molality of the nth substance listed, in mol/kg
Details: Liquid; for viscosity: Falling or rolling sphere viscometry; for mass density: Vibrating tube method

S [hydrogen sulfide] + O=S1(=O)CCCC1
Details | mass density [kg/m3] | viscosity [mPa·s]
303.15 K, 86.7 kPa, m1 = 0.389 | 1257 | 9.33
303.15 K, 137.1 kPa, m1 = 0.623 | 1255 | 8.58
303.15 K, 193.6 kPa, m1 = 0.915 | 1253 | 7.76
303.15 K, 230.1 kPa, m1 = 1.128 | 1251 | 6.88
303.15 K, 304.1 kPa, m1 = 1.435 | 1248 | 6.31
303.15 K, 364.8 kPa, m1 = 1.764 | 1246 | 5.55
303.15 K, 401.1 kPa, m1 = 2.032 | 1244 | 5.09
303.15 K, 503.2 kPa, m1 = 2.605 | 1242 | 4.44
303.15 K, 616.7 kPa, m1 = 3.291 | 1238 | 3.7
303.15 K, 738.4 kPa, m1 = 4.17 | 1237 | 2.95
303.15 K, 889.7 kPa, m1 = 5.327 | 1233 | 2.08
303.15 K, 1040.5 kPa, m1 = 6.929 | 1230 | 1.47
313.15 K, 160.8 kPa, m1 = 0.626 | 1246 | 6.7
313.15 K, 227 kPa, m1 = 0.884 | 1242 | 6.03
313.15 K, 273.9 kPa, m1 = 1.021 | 1242 | 5.5
313.15 K, 362.7 kPa, m1 = 1.408 | 1238 | 5.07
313.15 K, 419.7 kPa, m1 = 1.723 | 1236 | 4.54
313.15 K, 481.3 kPa, m1 = 2.009 | 1234 | 4.02
313.15 K, 586.5 kPa, m1 = 2.375 | 1231 | 3.74
313.15 K, 718.4 kPa, m1 = 3.078 | 1228 | 3.07
313.15 K, 859.9 kPa, m1 = 3.931 | 1225 | 2.44
313.15 K, 1035.5 kPa, m1 = 5.164 | 1223 | 1.8
323.15 K, 76.1 kPa, m1 = 0.222 | 1243 | 6.09
323.15 K, 118.7 kPa, m1 = 0.378 | 1242 | 5.55
323.15 K, 190.1 kPa, m1 = 0.579 | 1239 | 5.16
323.15 K, 267.2 kPa, m1 = 0.823 | 1236 | 4.49
323.15 K, 317.2 kPa, m1 = 1.009 | 1234 | 4.35
323.15 K, 430.1 kPa, m1 = 1.389 | 1229 | 3.74
323.15 K, 490.4 kPa, m1 = 1.704 | 1226 | 3.41
323.15 K, 565.2 kPa, m1 = 1.985 | 1223 | 3.09
323.15 K, 688.7 kPa, m1 = 2.348 | 1220 | 2.86
323.15 K, 843.7 kPa, m1 = 3.097 | 1216 | 2.35
323.15 K, 1009.9 kPa, m1 = 3.97 | 1215 | 1.89
333.15 K, 88.3 kPa, m1 = 0.218 | 1233 | 4.78
333.15 K, 139.2 kPa, m1 = 0.372 | 1231 | 4.65
333.15 K, 219.9 kPa, m1 = 0.571 | 1228 | 4.29
333.15 K, 314.1 kPa, m1 = 0.811 | 1225 | 3.86
333.15 K, 370.5 kPa, m1 = 0.995 | 1223 | 3.58
333.15 K, 505.9 kPa, m1 = 1.368 | 1219 | 3.17
333.15 K, 576.7 kPa, m1 = 1.681 | 1215 | 2.8
333.15 K, 664 kPa, m1 = 1.959 | 1212 | 2.55
333.15 K, 800 kPa, m1 = 2.462 | 1208 | 2.29
343.15 K, 96 kPa, m1 = 0.205 | 1223 | 3.95
343.15 K, 159.7 kPa, m1 = 0.347 | 1220 | 3.74
343.15 K, 253.3 kPa, m1 = 0.563 | 1218 | 3.5
343.15 K, 368.1 kPa, m1 = 0.797 | 1215 | 3.13
343.15 K, 428.2 kPa, m1 = 0.981 | 1214 | 2.99
343.15 K, 590.6 kPa, m1 = 1.347 | 1211 | 2.65
343.15 K, 678.9 kPa, m1 = 1.654 | 1204 | 2.34
343.15 K, 782.1 kPa, m1 = 1.927 | 1202 | 2.18
343.15 K, 914 kPa, m1 = 2.221 | 1200 | 2.01
343.15 K, 1119.8 kPa, m1 = 2.876 | 1196 | 1.65
353.15 K, 116.1 kPa, m1 = 0.202 | 1216 | 3.24
353.15 K, 179.9 kPa, m1 = 0.319 | 1214 | 3.11
353.15 K, 288.8 kPa, m1 = 0.546 | 1210 | 2.69
353.15 K, 427.9 kPa, m1 = 0.802 | 1209 | 2.53
353.15 K, 494.2 kPa, m1 = 0.965 | 1206 | 2.46
353.15 K, 683.1 kPa, m1 = 1.324 | 1199 | 2.2
353.15 K, 795.9 kPa, m1 = 1.624 | 1195 | 1.98
353.15 K, 911.1 kPa, m1 = 1.894 | 1193 | 1.81
363.15 K, 131.7 kPa, m1 = 0.195 | 1208 | 2.71
363.15 K, 201.9 kPa, m1 = 0.304 | 1206 | 2.61
363.15 K, 327.1 kPa, m1 = 0.504 | 1202 | 2.46
363.15 K, 494.7 kPa, m1 = 0.767 | 1199 | 2.21
363.15 K, 565.7 kPa, m1 = 0.912 | 1196 | 2.05
363.15 K, 784.2 kPa, m1 = 1.3 | 1190 | 1.74
363.15 K, 928.7 kPa, m1 = 1.591 | 1185 | 1.5
363.15 K, 1052.3 kPa, m1 = 1.86 | 1184 | 1.37

O=S1(=O)CCCC1 [sulfolane] + O=C=O
Details | mass density [kg/m3] | viscosity [mPa·s]
303.15 K, 118.4 kPa, m2 = 0.103 | 1260 | 9.99
303.15 K, 191.2 kPa, m2 = 0.174 | 1259 | 9.8
303.15 K, 316.5 kPa, m2 = 0.284 | 1258 | 9.36
303.15 K, 495.3 kPa, m2 = 0.438 | 1256 | 8.97
303.15 K, 648.5 kPa, m2 = 0.598 | 1255 | 8.34
303.15 K, 777.7 kPa, m2 = 0.709 | 1254 | 7.85
303.15 K, 1063.8 kPa, m2 = 1.001 | 1253 | 7
303.15 K, 1253.8 kPa, m2 = 1.205 | 1252 | 6.48
303.15 K, 1447.1 kPa, m2 = 1.423 | 1252 | 5.96
313.15 K, 121.8 kPa, m2 = 0.0954 | 1252 | 7.98
313.15 K, 200.8 kPa, m2 = 0.1579 | 1250 | 7.73
313.15 K, 324.9 kPa, m2 = 0.2571 | 1249 | 7.61
313.15 K, 526 kPa, m2 = 0.4296 | 1247 | 7.13
313.15 K, 732.9 kPa, m2 = 0.5763 | 1246 | 6.88
313.15 K, 855.1 kPa, m2 = 0.6803 | 1245 | 6.36
313.15 K, 1169.6 kPa, m2 = 0.9594 | 1243 | 5.81
313.15 K, 1383.5 kPa, m2 = 1.159 | 1243 | 5.28
313.15 K, 1644.1 kPa, m2 = 1.385 | 1242 | 4.99
323.15 K, 141.1 kPa, m2 = 0.093 | 1242 | 6.21
323.15 K, 238.4 kPa, m2 = 0.163 | 1241 | 6.1
323.15 K, 392.8 kPa, m2 = 0.266 | 1239 | 5.97
323.15 K, 632 kPa, m2 = 0.417 | 1237 | 5.69
323.15 K, 817.7 kPa, m2 = 0.557 | 1235 | 5.46
323.15 K, 993.9 kPa, m2 = 0.692 | 1234 | 5.16
323.15 K, 1413.4 kPa, m2 = 1.019 | 1232 | 4.68
323.15 K, 1706.6 kPa, m2 = 1.217 | 1231 | 4.28
323.15 K, 2006.9 kPa, m2 = 1.472 | 1231 | 3.98
333.15 K, 153.2 kPa, m2 = 0.091 | 1233 | 5.14
333.15 K, 263.6 kPa, m2 = 0.158 | 1232 | 5.09
333.15 K, 436.2 kPa, m2 = 0.257 | 1229 | 4.92
333.15 K, 694.6 kPa, m2 = 0.415 | 1226 | 4.5
333.15 K, 896.4 kPa, m2 = 0.54 | 1224 | 4.4
333.15 K, 1035.8 kPa, m2 = 0.626 | 1223 | 4.27
333.15 K, 1456.6 kPa, m2 = 0.886 | 1220 | 3.87
333.15 K, 1761.6 kPa, m2 = 1.061 | 1218 | 3.69
343.15 K, 168.2 kPa, m2 = 0.087 | 1223 | 4.19
343.15 K, 296.7 kPa, m2 = 0.155 | 1222 | 4.06
343.15 K, 477.6 kPa, m2 = 0.249 | 1219 | 4
343.15 K, 758.5 kPa, m2 = 0.402 | 1216 | 3.61
343.15 K, 978.6 kPa, m2 = 0.526 | 1213 | 3.63
343.15 K, 1118.9 kPa, m2 = 0.603 | 1211 | 3.46
343.15 K, 1538.6 kPa, m2 = 0.853 | 1207 | 3.24
343.15 K, 1852.6 kPa, m2 = 1.011 | 1205 | 3.02
343.15 K, 2326.1 kPa, m2 = 1.305 | 1203 | 2.92
353.15 K, 178.9 kPa, m2 = 0.08 | 1215 | 3.5
353.15 K, 305 kPa, m2 = 0.137 | 1212 | 3.27
353.15 K, 509.4 kPa, m2 = 0.232 | 1209 | 3.14
353.15 K, 828 kPa, m2 = 0.38 | 1205 | 3.16
353.15 K, 1248.9 kPa, m2 = 0.581 | 1199 | 3
353.15 K, 1720.3 kPa, m2 = 0.822 | 1194 | 2.78
353.15 K, 1911.1 kPa, m2 = 0.924 | 1192 | 2.62
363.15 K, 188.8 kPa, m2 = 0.076 | 1205 | 2.84
363.15 K, 327.8 kPa, m2 = 0.133 | 1203 | 2.74
363.15 K, 555 kPa, m2 = 0.225 | 1199 | 2.64
363.15 K, 902.8 kPa, m2 = 0.366 | 1194 | 2.49
363.15 K, 1404.2 kPa, m2 = 0.573 | 1189 | 2.39
363.15 K, 2015 kPa, m2 = 0.822 | 1185 | 2.24
